In assay [1] the target is Receptor-type tyrosine-protein phosphatase F (Homo sapiens) (UniProt P10586). Briefly: Compound was tested for inhibition of Lar tyrosine phosphatase at a concentration of 10 uM in fluorometric assay using DiFMUP.
For assay [2] the target is unchanged. Briefly: Compound was tested for inhibition of Lar tyrosine phosphatase at a concentration of 100 uM in fluorometric assay using DiFMUP.
The target of assay [3] is T1, Tyrosine-protein phosphatase non-receptor type 2 (Homo sapiens) (UniProt P17706).
T1 sequence (whole entry): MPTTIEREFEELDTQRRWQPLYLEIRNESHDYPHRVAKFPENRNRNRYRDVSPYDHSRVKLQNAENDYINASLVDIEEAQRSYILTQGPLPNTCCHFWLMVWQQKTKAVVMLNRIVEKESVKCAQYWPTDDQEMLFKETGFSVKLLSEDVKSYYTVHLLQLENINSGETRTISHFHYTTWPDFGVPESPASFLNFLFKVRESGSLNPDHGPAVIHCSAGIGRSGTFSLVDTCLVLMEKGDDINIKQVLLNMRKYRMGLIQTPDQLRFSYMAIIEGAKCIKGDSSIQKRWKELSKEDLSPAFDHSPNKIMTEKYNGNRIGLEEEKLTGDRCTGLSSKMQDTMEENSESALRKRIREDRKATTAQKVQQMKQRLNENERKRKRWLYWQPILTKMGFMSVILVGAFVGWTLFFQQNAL
Briefly: Compound was tested for inhibition of T-cell protein tyrosine phosphatase TC-PTP at a concentration of 10 uM in fluorometric assay using DiFMUP.

The target in assay [4] is T1, Tyrosine-protein phosphatase non-receptor type 2 (Homo sapiens). Briefly: Compound was tested for inhibition of T-cell protein tyrosine phosphatase TC-PTP at a concentration of 100 uM in fluorometric assay using DiFMUP.
Assay [5] concerns the target T2, Tyrosine-protein phosphatase non-receptor type 1 (Homo sapiens) (UniProt P18031).
T2 sequence (whole entry): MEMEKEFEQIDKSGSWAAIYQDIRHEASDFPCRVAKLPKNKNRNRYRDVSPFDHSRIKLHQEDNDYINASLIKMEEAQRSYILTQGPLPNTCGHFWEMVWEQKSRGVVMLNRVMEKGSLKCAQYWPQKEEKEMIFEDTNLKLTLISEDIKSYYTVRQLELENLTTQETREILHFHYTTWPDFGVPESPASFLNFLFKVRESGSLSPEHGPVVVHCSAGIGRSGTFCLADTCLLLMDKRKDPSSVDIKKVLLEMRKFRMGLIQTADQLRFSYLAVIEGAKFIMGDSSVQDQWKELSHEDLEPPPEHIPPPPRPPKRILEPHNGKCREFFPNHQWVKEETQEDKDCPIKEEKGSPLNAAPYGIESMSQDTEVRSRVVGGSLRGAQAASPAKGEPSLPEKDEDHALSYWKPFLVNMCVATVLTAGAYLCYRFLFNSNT
Briefly: Compound was tested for inhibition of Protein-tyrosine phosphatase 1B at a concentration of 10 uM in fluorometric assay using DiFMUP.

The target in assay [6] is T2, Tyrosine-protein phosphatase non-receptor type 1 (Homo sapiens). Briefly: Compound was tested for inhibition of Protein-tyrosine phosphatase 1B at a concentration of 100 uM in fluorometric assay using DiFMUP.
The target in assay [7] is Receptor-type tyrosine-protein phosphatase C (CD45) (Homo sapiens) (UniProt P08575). Briefly: Compound was tested for inhibition of CD45 tyrosine phosphatase at a concentration of 10 uM in fluorometric assay using DiFMUP.
For assay [8] the target is unchanged. Nature of the assay: Compound was tested for inhibition of CD45 tyrosine phosphatase at a concentration of 100 uM in fluorometric assay using DiFMUP.

Each structure is given as a SMILES string.

Chain of Receptor-type tyrosine-protein phosphatase F (Homo sapiens) (P10586 whole entry): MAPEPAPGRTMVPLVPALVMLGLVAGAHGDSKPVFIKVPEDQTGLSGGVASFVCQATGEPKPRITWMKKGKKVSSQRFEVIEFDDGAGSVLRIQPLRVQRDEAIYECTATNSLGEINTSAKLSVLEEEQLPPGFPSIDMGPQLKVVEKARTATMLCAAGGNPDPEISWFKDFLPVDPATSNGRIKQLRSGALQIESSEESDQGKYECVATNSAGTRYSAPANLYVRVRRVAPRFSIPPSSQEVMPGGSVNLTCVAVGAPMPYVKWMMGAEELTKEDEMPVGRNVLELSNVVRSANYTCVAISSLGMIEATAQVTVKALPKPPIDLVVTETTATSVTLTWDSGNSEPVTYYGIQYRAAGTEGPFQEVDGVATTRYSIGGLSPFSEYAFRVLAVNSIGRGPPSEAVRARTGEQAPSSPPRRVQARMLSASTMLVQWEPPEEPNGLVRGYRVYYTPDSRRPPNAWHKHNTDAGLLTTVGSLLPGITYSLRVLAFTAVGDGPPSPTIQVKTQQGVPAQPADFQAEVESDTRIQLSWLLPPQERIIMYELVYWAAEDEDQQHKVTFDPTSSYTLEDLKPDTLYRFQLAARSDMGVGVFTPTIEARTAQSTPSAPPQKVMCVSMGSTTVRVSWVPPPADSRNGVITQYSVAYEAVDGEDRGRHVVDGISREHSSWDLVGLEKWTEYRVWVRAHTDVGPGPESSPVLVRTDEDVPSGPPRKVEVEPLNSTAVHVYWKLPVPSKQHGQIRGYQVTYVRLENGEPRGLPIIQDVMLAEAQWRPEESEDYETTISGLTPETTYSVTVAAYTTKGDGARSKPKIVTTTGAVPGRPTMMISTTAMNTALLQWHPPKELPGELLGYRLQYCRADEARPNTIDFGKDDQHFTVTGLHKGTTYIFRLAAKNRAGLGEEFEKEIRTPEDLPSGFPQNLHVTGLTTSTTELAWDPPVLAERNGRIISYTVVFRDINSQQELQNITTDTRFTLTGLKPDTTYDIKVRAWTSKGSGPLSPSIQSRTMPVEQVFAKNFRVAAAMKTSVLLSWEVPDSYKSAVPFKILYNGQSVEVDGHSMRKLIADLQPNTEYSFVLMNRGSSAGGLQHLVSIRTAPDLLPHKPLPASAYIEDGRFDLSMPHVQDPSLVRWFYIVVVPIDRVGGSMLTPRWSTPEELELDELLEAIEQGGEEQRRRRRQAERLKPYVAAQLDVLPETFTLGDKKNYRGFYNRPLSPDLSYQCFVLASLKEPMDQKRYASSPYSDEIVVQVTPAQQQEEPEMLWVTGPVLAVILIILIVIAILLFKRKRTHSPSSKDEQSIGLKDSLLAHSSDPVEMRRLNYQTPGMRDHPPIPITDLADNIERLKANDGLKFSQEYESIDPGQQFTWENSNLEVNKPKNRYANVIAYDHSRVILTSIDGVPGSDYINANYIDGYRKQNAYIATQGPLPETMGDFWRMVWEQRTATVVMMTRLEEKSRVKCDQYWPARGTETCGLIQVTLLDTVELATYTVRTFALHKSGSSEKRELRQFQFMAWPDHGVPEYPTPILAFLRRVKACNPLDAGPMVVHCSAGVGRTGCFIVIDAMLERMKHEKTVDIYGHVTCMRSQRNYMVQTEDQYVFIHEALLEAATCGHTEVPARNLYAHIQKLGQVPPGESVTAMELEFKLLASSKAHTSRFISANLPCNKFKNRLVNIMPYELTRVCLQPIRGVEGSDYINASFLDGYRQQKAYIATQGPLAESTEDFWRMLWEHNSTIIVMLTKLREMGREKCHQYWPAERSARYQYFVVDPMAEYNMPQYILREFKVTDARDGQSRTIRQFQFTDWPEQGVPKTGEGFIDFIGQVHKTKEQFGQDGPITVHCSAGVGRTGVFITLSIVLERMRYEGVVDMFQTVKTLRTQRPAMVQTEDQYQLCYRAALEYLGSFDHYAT
Chain of Receptor-type tyrosine-protein phosphatase C (CD45) (Homo sapiens) (P08575 whole entry, looked up): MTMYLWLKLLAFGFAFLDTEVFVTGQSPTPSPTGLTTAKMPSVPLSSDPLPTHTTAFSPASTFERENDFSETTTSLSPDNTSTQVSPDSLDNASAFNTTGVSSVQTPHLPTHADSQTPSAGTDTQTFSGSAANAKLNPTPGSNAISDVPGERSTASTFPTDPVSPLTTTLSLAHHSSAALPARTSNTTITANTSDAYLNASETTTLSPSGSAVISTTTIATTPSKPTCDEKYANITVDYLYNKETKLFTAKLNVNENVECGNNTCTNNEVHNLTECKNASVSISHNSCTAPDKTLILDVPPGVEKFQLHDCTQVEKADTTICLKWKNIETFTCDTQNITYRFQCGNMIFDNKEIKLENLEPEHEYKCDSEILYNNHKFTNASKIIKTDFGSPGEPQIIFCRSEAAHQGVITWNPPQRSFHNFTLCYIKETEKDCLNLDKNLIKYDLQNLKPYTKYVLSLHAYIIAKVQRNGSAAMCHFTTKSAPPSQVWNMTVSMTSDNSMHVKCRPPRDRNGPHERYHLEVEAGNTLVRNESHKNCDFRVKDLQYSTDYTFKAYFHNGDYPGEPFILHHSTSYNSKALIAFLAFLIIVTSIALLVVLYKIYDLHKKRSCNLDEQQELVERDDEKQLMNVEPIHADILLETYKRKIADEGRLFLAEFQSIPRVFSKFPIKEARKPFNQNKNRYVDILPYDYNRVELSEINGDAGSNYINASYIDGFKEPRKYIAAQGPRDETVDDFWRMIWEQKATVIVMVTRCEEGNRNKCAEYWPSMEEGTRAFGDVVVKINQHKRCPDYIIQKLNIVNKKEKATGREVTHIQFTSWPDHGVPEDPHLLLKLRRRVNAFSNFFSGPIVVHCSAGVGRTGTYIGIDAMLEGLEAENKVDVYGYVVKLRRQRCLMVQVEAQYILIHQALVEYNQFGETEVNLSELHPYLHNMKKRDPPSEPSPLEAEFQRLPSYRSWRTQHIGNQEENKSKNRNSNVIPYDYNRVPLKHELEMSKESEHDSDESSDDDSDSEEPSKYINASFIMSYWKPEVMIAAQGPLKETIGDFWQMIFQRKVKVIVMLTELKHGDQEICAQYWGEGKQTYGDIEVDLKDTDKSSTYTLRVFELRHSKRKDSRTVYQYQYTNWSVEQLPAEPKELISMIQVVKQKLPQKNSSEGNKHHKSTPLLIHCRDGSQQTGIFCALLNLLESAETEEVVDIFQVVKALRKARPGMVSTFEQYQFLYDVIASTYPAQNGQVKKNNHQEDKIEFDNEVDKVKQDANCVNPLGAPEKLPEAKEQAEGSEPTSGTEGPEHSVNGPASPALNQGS

`O=C(O)CCCC1C=CC(C(=O)NC(Cc2ccc3sccc(=O)c3c2)C(=O)O)n2c(=O)n(CC3CCCCC3)c(=O)n21` (configuration not stated): the inhibition in assay [1] was determined as 0%; in assay [2] it was 10%; in assay [3], 10%; in assay [4] it was 20%; in assay [5] it was 40%; in assay [6], 70%. Further, the inhibition in assay [7] amounted to 20%; in assay [8], 70%.
With `CC(Cn1c(=O)n2n(c1=O)C(C(=O)NC(Cc1ccc3sccc(=O)c3c1)C(=O)O)C=CC2CCCC(=O)O)c1ccccc1` (configuration not stated), the inhibition in assay [1] was determined as 10%; in assay [2], 50%; in assay [3] it was 20%; in assay [4] it was 90%; in assay [5], 55%; in assay [6] it was 95%. Moreover, the inhibition came out at 15% in assay [7] and 55% in assay [8].
Turning to `O=C(O)CCCC1C=CC(C(=O)NC(Cc2ccc3sccc(=O)c3c2)C(=O)O)n2c(=O)n(-c3ccc(Oc4ccccc4)cc3)c(=O)n21` (configuration not stated), the inhibition is 50% in assay [1]; 70% in assay [2]; 85% in assay [3]; 100% in assay [4]; 75% in assay [5]; 100% in assay [6]. Moreover, the figures for the inhibition in assay [7] and in assay [8] were 20% and 70%, respectively.
Turning to `O=C(O)CCCC1C=CC(C(=O)NC(Cc2ccc3sccc(=O)c3c2)C(=O)O)n2c(=O)n(Cc3cc(F)ccc3F)c(=O)n21` (configuration not stated), the inhibition in assay [1] stood at 25%; in assay [2], 50%; in assay [3], 85%; in assay [4] it was 100%; in assay [5], 0%; in assay [6], 95%. The inhibition in assay [7] was found to be 5%; in assay [8], 50%.

The values are drawn from ChEMBL document CHEMBL1136070, “Design and synthesis of phosphotyrosine mimetics” (Bioorg Med Chem Lett, 2003).
